In BindingDB's records for patent US20240101559 (Dana-Farber Cancer Institute, 2024) one finds IC50 data, which are given here for one molecule.

The target of this test is Tyrosine-protein kinase JAK2 (Homo sapiens, UniProt O60674). Put plainly: JAK2 Z-Lyte Biochemical Assay. As for the experimental part: The JAK2 Z-Lyte biochemical assay was performed according to manufacturer's instructions (Life Technologies).
Tyrosine-protein kinase JAK2, sequence (O60674 whole entry): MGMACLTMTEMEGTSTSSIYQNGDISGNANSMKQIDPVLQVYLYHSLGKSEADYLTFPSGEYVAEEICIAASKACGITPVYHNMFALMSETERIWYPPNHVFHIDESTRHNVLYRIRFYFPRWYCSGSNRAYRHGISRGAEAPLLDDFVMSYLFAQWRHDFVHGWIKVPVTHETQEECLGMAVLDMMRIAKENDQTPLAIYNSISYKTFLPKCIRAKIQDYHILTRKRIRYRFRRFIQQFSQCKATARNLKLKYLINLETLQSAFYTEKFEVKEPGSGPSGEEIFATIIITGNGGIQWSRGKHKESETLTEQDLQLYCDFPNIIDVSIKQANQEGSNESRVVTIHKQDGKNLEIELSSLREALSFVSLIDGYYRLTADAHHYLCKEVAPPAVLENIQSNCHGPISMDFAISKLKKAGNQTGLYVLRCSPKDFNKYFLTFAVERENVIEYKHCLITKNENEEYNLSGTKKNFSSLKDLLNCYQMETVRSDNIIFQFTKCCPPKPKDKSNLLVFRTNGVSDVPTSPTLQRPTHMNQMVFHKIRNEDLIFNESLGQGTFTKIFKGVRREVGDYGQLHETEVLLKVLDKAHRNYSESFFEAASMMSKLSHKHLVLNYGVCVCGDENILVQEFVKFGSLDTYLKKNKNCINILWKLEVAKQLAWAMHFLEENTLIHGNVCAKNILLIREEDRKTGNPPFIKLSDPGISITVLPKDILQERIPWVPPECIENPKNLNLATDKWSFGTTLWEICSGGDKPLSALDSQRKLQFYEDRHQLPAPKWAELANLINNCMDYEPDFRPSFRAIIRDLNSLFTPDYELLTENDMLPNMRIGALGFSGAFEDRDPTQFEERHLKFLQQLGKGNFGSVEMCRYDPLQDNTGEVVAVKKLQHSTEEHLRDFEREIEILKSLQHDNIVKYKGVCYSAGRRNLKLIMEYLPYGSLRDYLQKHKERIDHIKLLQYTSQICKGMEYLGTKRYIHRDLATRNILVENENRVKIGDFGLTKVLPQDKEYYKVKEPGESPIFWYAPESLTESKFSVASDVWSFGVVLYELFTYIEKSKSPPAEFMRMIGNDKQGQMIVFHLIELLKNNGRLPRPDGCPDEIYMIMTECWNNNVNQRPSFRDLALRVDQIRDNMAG

With `CC(=O)Nc1cc(Oc2ccc3nc(Nc4cccc(C(C)(C)C#N)c4)n4c3c2CCC4)ccn1` [US20240101559, Compound I-2], the midpoint of inhibition, the IC50, lay at 4.07 µM.

Broadly, the IC50 is the concentration at which inhibition is half-maximal.
